In EP0641563A1, “REMEDY FOR CATARACT AND PRODUCTION THEREOF” (TAISHO PHARMACEUTICAL CO. LTD, priority 1992, dated 1993):

Tests used:
cultured rat lenses [1] = settings: selenite cataract models and diabetic cataract models of cultured rat lenses; Atarashii Ganka, vol. 6, 1573-1576 (1989); cited from earlier work
cultured rat lenses [2] = assay: Calcium ionophore-induced cataract in cultured rat lenses (opacity by image analyser); type: cell-based, male S.D. rats; settings: 10 µM calcium ionophore (A23187)
Procedure: Lenses were dissected from 4-week-old male S.D. rats, and cultured for one day in (1) a basic culture medium (MEM), (2) a culture medium of (1) supplemented with 10 µM calcium ionophore (A23187), or (3) a culture medium of (2) supplemented with 4, 20, 100 or 500 µM E-64 or E-64d. Thereafter, the medium was changed as follows: (1) basic medium, (2) basic medium, and (3) basic medium with several concentrations of E-64 or E-64d, and culture was continued for 4 more days, after which opacity of lenses was measured using an image analyser. The ratio of the inhibition of the development of lens opacity by each test drug (E-64, E-64d) to that in the control group is shown in Fig. 2. […] As is evident from the results of Fig. 2, E-64 or E-64d inhibited the opacity of lens caused by calcium ionophore in a concentration-dependent manner. The inhibition effect was stronger in E-64d than in E-64, and the opacity of lens was inhibited by 50% or more at a concentration of 20 µM.

[3] = Corneal permeability in vitro (side-by-side permeation cell)
Procedure: Corneal permeability was tested in vitro using a side-by-side type permeation cell equipped with cornea from albino rabbit. A 1% E-64c solution prepared using a buffer having the following formulation was charged in a donor cell, and the following buffer was charged in a receptor cell, and they were incubated at 34°C. The amount of E-64c permeated into the receptor cell was measured with time. The accumulative amount of the permeated E-64c was measured 1, 2, and 3 hours later.
In the same manner as in Experiment Example 4, corneal permeability of a 1% E-64d suspension (pH 7) was examined.

[4] = tested on: galactose cataract in rats; assay: Galactose cataract in rats (slit lamp, Sippel grades); type: in vivo, male SD rats; settings: for progression of cataract (grades of Sippel) compared with control: Wilcoxon method; for progression of cataract compared with control, time series variance analysis: up to day 28
Procedure: Three-week-old male SD rats (n=30) were bred in a breeding room having a temperature of 24±4°C and humidity of 55±15%, on Labo MR stock (manufactured by Nihon Nosan Kogyo Co., Ltd., Japan) and tap water.
As the test drugs, used were (1) 1% solution of E-64c prepared by dissolving E-64c bulk powder in 0.1N sodium hydroxide, adjusting the pH to 5 with 0.1N hydrochloric acid, and adding purified water; and (2) 1% suspension of E-64d prepared by suspending E-64d bulk powder in 0.3% Tween 80, the osmotic pressure of both of which having been adjusted to 290 mOsm/kg H₂O with sodium chloride. As a control, used was (3) physiological saline.
The test animals were pre-bred for a week, and then bred on a 25% galactose feed (solidified product of a mixture of galactose and Labo MR stock powder at the ratio of 1:3). The animals were fed for 24 hours daily for the first 7 days, and 9 hours a day from the 8th day. The test drugs were administered from the day when galactose feeding was initiated, and (1) was administered intraperitoneally once a day (100 mg/kg, 1 ml/100g as liquid), and (2) was instilled only in the right eye 4 times a day by 5 µl at a time without treatment to the left eye. The control group was instilled with (3) in the same manner as in the case of (2) without treatment to the left eye.
Lenses were observed under mydriasis using a slit lamp (SL-5D) at 7 day-intervals from the initiation of the test drug and physiological saline (control) administrations until day 28, and the progression of cataract up to the mature cataract was evaluated according to the following 8 stages of cataract grades defined by Sippel [Invest. Ophthalmol., vol. 6, 568-575 (1966)].

[5] = pH stability of 1% E-64d suspensions; type: physicochemical; settings: 1% E-64d suspension
Excerpt: The stability of 1% E-64d suspensions adjusted to various pHs was examined. […]

cataract in Nakano mouse = assay: Cataract in Nakano mouse, intraperitoneal administration; type: in vivo, Nakano mice
Procedure: Thirty-five Nakano mice (9 days old) were divided into three groups, and each group was intraperitoneally administered once a day with E-64d at 30 mg/kg or 100 mg/kg, or 5% gum arabic solution as a control. E-64d was suspended in 5% gum arabic solution at a concentration of 0.15% or 0.5%, respectively, and administered to the mice. After the eyes of the mice opened, opacity of the lens was observed using a slip lamp to evaluate progress of cataract.

## CC(C)C[C@H](NC(=O)[C@H]1O[C@@H]1C(=O)O)C(=O)NCCCCNC(=N)N [E-64, trans-epoxysuccinyl-leucylamide-(4-guanidino)butane, reference compound]
Cultured rat lenses [1]
  effect on opacity of lens: can prevent opacity of lens
Cultured rat lenses [2]; 4, 20, 100 or 500 µM
  inhibition of the opacity of lens caused by calcium ionophore: concentration-dependent

## CC(C)CCNC(=O)[C@H](CC(C)C)NC(=O)[C@H]1O[C@@H]1C(=O)O [E-64c, (+)-(2S,3S)-3[(S)-3-methyl-1-(3-methylbutylcarbamoyl)butylcarbamoyl]-2-oxiranecarboxylic acid]
[3]
  corneal permeability, dependence on pH: pH-dependent
[3]; 1% E-64c solution, pH range of 3 or below
  effect on corneal tissue: tissue disorders causing corneal opacity were observed
[4]; 1% E-64c solution, 100 mg/kg intraperitoneally once a day, 14 days from initiation of administration
  progression of cataract (grades of Sippel) compared with control: significant delay of cataract
[4]; 1% E-64c solution, 100 mg/kg intraperitoneally once a day
  progression of cataract compared with control, time series variance analysis: significant delay of cataract

## CCOC(=O)[C@H]1O[C@@H]1C(=O)N[C@@H](CC(C)C)C(=O)NCCC(C)C [E-64d]
[3]; pH 7
  E-64d in the receptor solution: not detected
[5]; in the vicinity of pH 4-6
  stability: stable
[5]; pH 4, 40°C (4 wk), 40320 min
  residual rate: 96.6%
[5]; pH 4, 60°C (1 wk), 10080 min
  residual rate: 98.7%
[5]; pH 5, 40°C (4 wk), 40320 min
  residual rate: 99.8%
[5]; pH 5, 60°C (1 wk), 10080 min
  residual rate: 98.7%
[5]; pH 6, 40°C (4 wk), 40320 min
  residual rate: 95.2%
[5]; pH 6, 60°C (1 wk), 10080 min
  residual rate: 97.9%
[5]; pH 7, 40°C (4 wk), 40320 min
  residual rate: 75.7%
[4]; 1% E-64d suspension instilled 4 times a day, 5 µl, 7 days from initiation of administration
  progression of cataract (grades of Sippel) compared with control: significant delay of cataract
[4]; 1% E-64d suspension instilled 4 times a day, 5 µl, 14 days from initiation of administration
  progression of cataract (grades of Sippel) compared with control: significant delay of cataract
[4]; 1% E-64d suspension instilled 4 times a day, 5 µl, 21 days from initiation of administration
  progression of cataract (grades of Sippel) compared with control: delaying tendency
[4]; 1% E-64d suspension instilled 4 times a day, 5 µl
  progression of cataract compared with control, time series variance analysis: significant delay of cataract
Cataract in Nakano mouse; 30 mg/kg intraperitoneally once a day, mice 21 days old (control about 40%)
  proportion of the group showing nuclear opacity: about 12%
Cataract in Nakano mouse; 100 mg/kg intraperitoneally once a day, mice 21 days old (control about 40%)
  development of nuclear opacity: no development of opacity was observed
Cataract in Nakano mouse; E-64d 30 or 100 mg/kg intraperitoneally once a day
  degree of nuclear opacity compared with control, time-course observation: limited to a smaller degree
Cultured rat lenses [2]; 4, 20, 100 or 500 µM
  inhibition effect on lens opacity, E-64d compared with E-64: stronger
  inhibition of the opacity of lens caused by calcium ionophore: concentration-dependent
Cultured rat lenses [2]; Rattus norvegicus, 120 h, 20 µM, 5 days culture, read-out: percent inhibition of lens opacity based on the opacity in the control group
  inhibition at 20 µM: ≥ 50%
